Reference: patent US8853373B2, “Method and reagent for gene sequence analysis” (Hitachi, Ltd., priority 2009, dated 2014)

How the values were obtained:
luciferase = luciferase (Photinus pyralis, UniProt P08659); assay: Evaluation of substrate specificity for luciferase (luminescence on dispensing the substrate); type: biochemical; details: for Substrate specificity (S) for luciferase, relative to that of ATP: amount of luminescence per unit concentration, substrate specificity of ATP normalized as 1
Experimental: In respect to the nucleic acid substrates synthesized, whether or not the substrates became a substrate for luciferase was evaluated by the following procedure. First, a luminescence reagent designated in Condition 1 of Table 1 was prepared.
Next, a reaction solution was prepared using 20 μL of this luminescence reagent, and 0.2 μL of a nucleic acid substrate of evaluation subject was injected. Then, luminescence emitted at this occasion was estimated. FIG. 6 is a graph showing the amount of luminescence when ATP, dATP, C^7dATP, and dATPαS are each dispensed as a substrate. The abscissa (C) indicates a final concentration of the compound in a reaction reagent. For example, when 0.2 μl of 1 μM substrate is dispensed, the final concentration is about 0.01 μM. An amount of luminescence (U) indicated in the ordinate was plotted by normalizing the amount of luminescence at 0.01 μM of ATP as 1. From this graph, the amount of luminescence (U) is found to be proportional to the final concentration (C). Because of this, as a substrate specificity (or substrate reactivity) for luciferase, the value (S) indicating the amount of luminescence per unit concentration is defined as described below. Substrate specificity (S)≡Amount of luminescence (U)/Final concentration (C)[μM]×0.01 (In this Definition, the Substrate Specificity of ATP is Normalized as 1).
The four points designated in the left side of the graph indicate each substrate specificity (S) of ATP, dATP, dATPαS, and C^7dATP. For a sequencing method using a stepwise chemical reaction represented by pyrosequencing, the amount of ATP generated from pyrophosphate produced in elongation of one nucleotide is equivalent to the amount of a target present in a reaction solution when all of the targets have been elongated. In addition, elongation of a plurality of nucleotides causes the amount to be multiplied by the number of the nucleotides. Generally speaking, the amount of a nucleic acid substrate which should be dispensed per reaction for sequencing requires about 100 times the amount of the target for analysis. This is because a sequenced region may sometimes contain about 10 consecutive identical nucleotides; and a reaction solution for this sequencing method has a substrate-degrading enzyme together, so that the nucleic acid elongation and substrate degradation are competed. Shortage of the substrates causes incomplete elongation, so that the following sequence analysis cannot be carried out. […] As a countermeasure against it, the substrate having about 100 times the target amount which has been generally used is preferably dispensed per reaction.
In this Example, the synthesized nucleic acid substrates were purified by liquid chromatography. However, removal of pyrophosphate that had been incorporated during the synthesis may be insufficiently carried out only by liquid chromatography-mediated purification. At that occasion, the present inventors treated the synthesized nucleic acid substrates by a pyrophosphate-degrading enzyme (PPase) to decompose the pyrophosphate. Specifically, the synthesized nucleic acid substrate was diluted in a reaction solution (100 mM Tris-Acetate, 0.5 mM EDTA, 5 mM Mg-Acetate, 1 mM DTT, pH 7.5) at a concentration of 500 μM. Then, PPase was added at 0.2 mU/μL, and the mixture was reacted at 30° C. for 30 minutes, which caused degradation of pyrophosphate in the solution. This method represents one example. […]

DNA Sequence S2 = assay: Sequence analysis by stepwise chemical reaction (pyrogram), PPDK system, Condition 4; type: biochemical; details: DNA Sequence S2 (3 consecutive nucleotides)
Experimental: Therefore, a sequence having 3 consecutive nucleotides of T was analyzed for comparison. Analyzed DNA Sequence S2 and a primer P3 are described below.
Of note is that Sequence P3 represents a primer sequence. This primer can complementarily bind to the underlined portion of the above DNA Sequence S2. FIGS. 16 to 20 show the results of a sequence analysis. In addition, the reagent conditions were listed together in the following Table 3.
In this experiment, an enzyme system which converts PPi into ATP has employed an enzyme system in which PPi and AMP are converted into ATP by PPDK as described in the conventional technique (Patent Literature 4). The items of the figure are identical to those of FIG. 15. At the bottom of the respective figures, the injected nucleotide types are designated. At the top, the nucleotide types which have been incorporated into a complementary DNA sequence of analysis object are designated. The substrate was injected in the order of “bases A, T, C, and G”, and 7 cycles were analyzed. As indicated in the target sequence, in this analysis, two regions (Cycle 4 and Cycle 7) having 3 consecutive nucleotides of A incorporated are present. Because of this, a difference in the ability of continuous incorporation of a nucleic acid substrate that is used as a nucleotide A can be assessed. Hereinafter, the details are described.
First, three kinds of the substrates (A3d, dATPαS, and C^7dATP) having the final concentration of 2 μM were used. The results of a sequence analysis will be described (FIGS. 16 to 20). […] At the time of dispensing A (surrounded by the circle ◯) which represented the injected nucleotide type, A3d was used. […] Accordingly, as the signal corresponding to A at the first cycle indicated, background luminescence was observed. Due to this phenomenon, the luminescence signal corresponding to nucleotide A constantly included the increased background luminescence. The symbol • in the figure denotes elongation luminescence corresponding to a nucleotide sequence of a sample. In contrast, the major luminescence without corresponding to the nucleotide sequence is represented by the symbol ∇. […] At the time of dispensing A (surrounded by the circle ◯) which represented the injected nucleotide type, dATPαS was used. The resulting pyrogram and the nucleotide sequence of a sample were compared. The symbol • in the figure denotes elongation luminescence corresponding to a nucleotide sequence of a sample. In contrast, the major luminescence without corresponding to the nucleotide sequence is represented by the symbol ∇. […] At the time of dispensing A (surrounded by the circle ◯) which represented the injected nucleotide type, C^7dATP was used. […] Accordingly, as the signal corresponding to A at the first cycle indicated, big background luminescence was observed. Due to this phenomenon, the luminescence signal corresponding to nucleotide A constantly included the increased background luminescence. The symbol x in the figure denotes just a background luminescence signal. The symbol • denotes elongation luminescence corresponding to a nucleotide sequence of a sample. However, the symbol (•) denotes inclusion of both elongation-derived luminescence and background luminescence. In contrast, the major luminescence without corresponding to the nucleotide sequence is represented by the symbol ∇.

[1] = final concentration 2 μM, 7 cycles

luciferase, sequence (P08659 whole entry, species assumed): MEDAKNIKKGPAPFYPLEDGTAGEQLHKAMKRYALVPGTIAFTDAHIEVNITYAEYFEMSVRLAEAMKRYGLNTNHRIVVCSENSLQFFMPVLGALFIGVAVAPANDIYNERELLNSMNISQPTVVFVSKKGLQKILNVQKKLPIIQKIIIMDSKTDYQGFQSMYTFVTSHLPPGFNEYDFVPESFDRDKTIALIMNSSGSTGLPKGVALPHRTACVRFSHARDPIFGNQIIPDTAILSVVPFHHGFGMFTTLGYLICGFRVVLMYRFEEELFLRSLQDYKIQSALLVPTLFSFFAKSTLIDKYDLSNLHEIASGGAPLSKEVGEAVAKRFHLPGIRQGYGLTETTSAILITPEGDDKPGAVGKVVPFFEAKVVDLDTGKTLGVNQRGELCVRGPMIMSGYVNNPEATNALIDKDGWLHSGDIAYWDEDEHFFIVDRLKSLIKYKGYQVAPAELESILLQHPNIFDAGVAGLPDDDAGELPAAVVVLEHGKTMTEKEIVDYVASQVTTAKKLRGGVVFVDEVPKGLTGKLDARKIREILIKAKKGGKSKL

Row | SMILES | Substrate specificity for luciferase compared with that of dATPαS (luciferase; FIG. 7) | Substrate specificity (S) for luciferase, relative to that of ATP (luciferase) | Sequence analysis result as substitute for dATP (DNA Sequence S2; [1]) | Sequence analysis result as substitute for dATP (DNA Sequence S2; final concentration 4 μM)
1 | Nc1ncnc2c1c(/C=C/C(=O)NCCc1ccncc1)cn2[C@H]1CC(O)[C@@H](COP(=O)(O)OP(=O)(O)OP(=O)(O)O)O1 (stereo partly drawn) [A3d] | about one order higher | 1/1000 | up to the nucleotide G at Cycle 7, a sequence analysis was found to be able to be definitely carried out | 
2 | Nc1ncnc2c1ncn2[C@H]1C[C@H](O)[C@@H](COP(O)(=S)OP(=O)(O)OP(=O)(O)O)O1 (stereo partly drawn) [dATPαS] |  | 1/10000 | incomplete elongation was able to be presumed to occur | the incomplete elongation is not completely resolved
